Results taken from patent US20240076347A1, “METHODS FOR PREVENTING FUNGAL INFECTIONS” (Cidara Therapeutics, Inc., priority 2016, published 2024).

What was measured:
[1] = test system: A. fumigatus (ATCC 13073); assay: Disseminated infection of neutropenic ICR mice, prophylaxis, survival; type: in vivo, Aspergillus fumigatus; details: 3 mg/kg IP 1 hr after infection
Protocol: (§1) Inoculum Preparation. A. fumigatus (ATCC 13073) growth was taken from 96 hr potato dextrose agar (PDA) and re-suspended in 0.1% Tween 20. The culture was resuspended in 1 mL cold PBS (>1.0×10^8 CFU/mL, OD620 2.3-2.8). The culture was then diluted in PBS to final cellular densities of 2.0×10^5 CFU/mL. The actual colony counts were determined by plating dilutions on PDA plates to confirm inoculation concentration. The actual inoculum count was 1.85×10^5 CFU/mL.
A. fumigatus (ATCC 13073) disseminated infection (IV). Groups of 6 female ICR mice weighing 22±2 g were used. Animals were immunosuppressed by three intraperitoneal (IP) injections of cyclophosphamide (the first at 6 mg/mouse 3 days before inoculation, the second and third at 2 mg/mouse on Day 1 then Day 4 after inoculation). On Day 0, animals were inoculated (0.1 mL/mouse) by intravenous (IV) injection into the tail vein with A. fumigatus (ATCC 13073), 1.85×10^4 CFU per mouse. CD101 at 5, 10 and 20 mg/kg as prophylaxis was administered subcutaneously (SC) once starting 5, 3 or 1 day before inoculation. […]
A 50 percent or more (≥50%) increase in the survival rate compared to the vehicle control group indicates significant anti-infective activity. The health observations including body weight, hunched posture, ruffled fur, immobility and hypothermia were recorded daily for 14 days. Animals found moribund were to be humanely sacrificed with CO2 asphyxiation in the study.

Candida auris = assay: Murine model of disseminated candidiasis (immunosuppressed CD-1 mice), treatment; type: in vivo; details: 0.3 mg/kg IP, 2 doses; Day 14
Protocol: Female 6-8 week old CD-1 mice were immunosuppressed with cyclophosphamide (200 mg/kg) 3 days prior to infection and 150 mg/kg 1 day post-infection. On the day of infection, mice were inoculated with 3×10^7 C. auris blastospores via the lateral tail vein. Mice were randomized into 5 groups (n=5 for colony forming units (CFU) and n=10 for survival): CD101 20 mg/kg administered by intraperitoneal (IP) injection, fluconazole 20 mg/kg administered per os (PO), amphotericin B 0.3 mg/kg IP, and a vehicle control. Treatments were administered 2 hours post-infection (Day 1) and again on Day 4 of the study for a total of 2 doses. Mice were monitored daily and a survival curve was generated. CFU groups were sacrificed on Day 8 of the study. One kidney was removed from each mouse, homogenized, plated on potato dextrose agar (PDA), and incubated at 35° C. for 2 days to determine CFU. The remaining survival mice were monitored until the end of the study (Day 14).

[2] = test system: A. fumigatus (ATCC 13073); assay: Disseminated infection of immune competent DBA/2 mice, prophylaxis, survival; type: in vivo, Aspergillus fumigatus; details: 3 mg/kg IP 1 hour after infection
Protocol: as §1, with “A.” for “Inoculum Preparation. A.”, “hour” for “hr”, “1.0×10^7” for “2.0×10^5”, “1.30×10^7” for “1.85×10^5”
Groups of 6 immune competent female DBA/2 mice weighing 18±2 g were used. On Day 0, animals were inoculated (0.1 mL/mouse) by intravenous (IV) injection into the tail vein with A. fumigatus (ATCC 13073), 1.30×10^6 CFU per mouse. CD101 at 3, 10 and 30 mg/kg as prophylaxis was administered subcutaneously (SC) once starting 5, 3 or 1 day before inoculation. In addition, CD101 at 3 mg/kg SC and the reference, amphotericin B, at 3 mg/kg by intraperitoneal (IP) injection were administered one hour after infection (See Table 2).
A 50 percent or more (≥50%) increase in the survival rate compared to the vehicle control group indicates significant anti-infective activity. The health observations including body weight, hunched posture, ruffled fur, immobility and hypothermia were recorded daily for 14 days.

In the case of C[C@@H]1[C@H](O)[C@@H](C)/C=C/C=C/C=C/C=C/C=C/C=C/C=C/[C@H](O[C@@H]2O[C@H](C)[C@@H](O)[C@H](N)[C@@H]2O)C[C@@H]2O[C@](O)(C[C@@H](O)C[C@@H](O)[C@H](O)CC[C@@H](O)C[C@@H](O)CC(=O)O[C@H]1C)C[C@H](O)[C@H]2C(=O)O [amphotericin B, reference compound], the 14-day survival [1] is reported as “significant increase in the 14-day survival”, the “percent survival at the end of the study” value (Candida auris) is reported as 30% and the 14-day survival [2] is reported as “significant increase in the 14-day survival”.
